The nature of data set [1]: Half life period in phosphate buffer (pH 7.4). Type of data set: ADME.
The next data set is filed under the species Mus musculus. Nature of the data set: Dose showing lethal effects on 10% of the mice bearing lewis lung tumors. Type of data set: functional.

In general, half-life refers to how long it takes for the measured level to halve. Read a low half-life as rapid decline. For the molecule `CN(C(=O)N(CCCl)N=O)C1CCC(C(=O)O)CC1` (centres undefined), the half-life in data set [1] is 4.5 h. In addition, the LD10 in the data set filed under Mus musculus was more than 400 mg/kg.
In data set [1], `O=NN(CCCl)C(=O)NC1CCC(C(=O)O)CC1` (centres undefined) showed a half-life of 46 h. The molecule further showed an LD10 in the data set listed under Mus musculus of 26 mg/kg.

For the origin of these results see ChEMBL document CHEMBL1122606, “cis-4-[[[(2-Chloroethyl)nitrosoamino]carbonyl]methylamino] cyclohexanecarboxylic acid, a nitrosourea with latent activity against an experimental solid tumor” (J Med Chem, 1984).
